Data as given in patent publication US20050026866A1 (priority 2002, published 2005).
Like-named read-outs stand apart in the source and are kept apart here.

Assays:
Assay type in all cases: cell-based
[1] = test system: Bordetella attachment and invasion into human melanoma cell line Skmel-23/C22
Description: Bordetella pertussis was cultured for 48-72 h on Bordet-Gengou agar plates (Remel, Inc.) in a 37° C. incubator. Prior to exposure of bacteria to mammalian cells (15-30 minutes), the bacteria were loop-transferred to Luria-Bertani (LB) liquid growth medium and adjusted to a concentration of 10^9 cfu/ml (OD600=0.5). Human Skmel-23/C22 metastatic melanoma cells, normal human melanocytes, or normal human fibroblasts were inoculated into Corning 12 well tissue culture plates (2-4×10^4 cells/well) in antibiotic-free DMEM growth medium supplemented with 10% fetal bovine serum, and placed in a gassed, humidified incubator, at 37° C. After 24 h, melanoma cells were fed with 1 ml fresh medium, and 15-20 h later, Bordetella pertussis strain 536 was added as described below. Potential inhibitors of Bordetella attachment and invasion of melanoma cells were added immediately before, or up to 2 h before addition of bacteria, as noted. […] Melanoma cells were then plated onto Bordet-Gengou agar plates in serial dilutions, incubated at 37° for 4d, and Bordetella pertussis were quantitated by colony counts as ‘colony forming units’ (cfu). […]
Structural requirements on cancer cells for attachment and invasion of B. pertussis. Quantitative invasion assays were carried out with various additives to investigate structural requirements on human melanoma cells for attachment and invasion of B. pertussis. […]

[2] = test system: SKMel-23 human melanoma cells; conditions: L-histidine alone, no B. pertussis strain
Description: Skmel-23/C22 human melanoma cells were cultured 15 h with or without the addition of B. pertussis to the culture medium.
(§1) Cancer cells tested were human carcinomas of the breast, lung, and kidney, and melanoma. Toxicity of B. pertussis strain 536, but not of Tohama I, was dependent on the simultaneous addition of rich nutrient broth such as Luria-Bertani bacterial growth medium, or amino acid-rich broths such as tryptone or casamino acids. […] The principal active ingredient in these broths was the amino acid histidine. […] Of 18 amino acids tested, only histidine induced a Bordetella-mediated cytotoxic/lytic effect.

[3] = test system: human carcinomas of the breast, lung, and kidney, and melanoma; conditions: without bacteria
Description: as §1

C[C@H](O)[C@@H](O)[C@@H](O)[C@H](O)C=O [L-fucose]
Bordetella (cfu/well) (% Control +/− S.D.) ([1]; 0.2% wt/vol, added 5 min. prior to bacteria, implied target fucosylated structures): 52 ± 14 % Control

N[C@@H](Cc1c[nH]cn1)C(=O)O [L-histidine]
melanoma cells/well (24 h post-treatment) [2]: 1.7 ± .07 × 10^5 melanoma cells/well | melanoma cells/well, % untreated cultures ([2]; 24 h post-treatment): 106 % untreated cultures | toxicity of histidine alone [3]: no toxicity

Arg-Gly-Asp [RGD]
Bordetella (cfu/well) (% Control +/− S.D.) ([1]; 0.8 mg/ml, added 2 h prior to bacteria, implied target Arg-Gly-Asp tripeptide sequence): 50 ± 5 % Control
